# Data as given in patent publication US4656166A, “Antibiotic compounds derived from cephalosporins, process for their production and pharmaceutical compositions” (Sanofi, priority 1983, dated 1987).
# Columns and labels:
# Type in all cases: cell-based
# Enterobacter RO 154 = assay: MIC, in vitro dilution method, Enterobacter RO 154 (Table III); details: RO154; Enterobacter RO 154; dilution method; read-out: MIC
# From the text: (§1) The products of the invention have been studied as regards their pharmacological properties and, more especially, bacteriostatic action. This has been determined in vitro by the dilution method, and the study was on Gram negative strains.
# (§2) Results, expressed in minimum inhibiting concentrations (MIC-- μg/ml), are collected in the following table (Table III).
# Escherichia coli SOL 90 = assay: MIC, in vitro dilution method, Escherichia coli SOL 90 (Table III); details: SOL90; Escherichia coli SOL 90; dilution method; read-out: MIC
# From the text: as §1, §2
# Citrobacter RL 49 = assay: MIC, in vitro dilution method, Citrobacter RL 49 (Table III); details: RL49; Citrobacter RL 49; dilution method; read-out: MIC
# From the text: as §1, §2
# [1] = tested on: Proteus vulgaris RL 99 bis; assay: MIC, in vitro dilution method, Proteus vulgaris RL 99 bis (Table III); details: RL99BIS; Proteus vulgaris RL 99 bis; dilution method; read-out: MIC
# From the text: as §1, §2
# Serratia RL 72 = assay: MIC, in vitro dilution method, Serratia RL 72 (Table III); details: RL72
# From the text: as §1, §2
# Pseudomonas RL 112 = assay: MIC, in vitro dilution method, Pseudomonas RL 112 (Table III); details: RL112
# From the text: as §1, §2
# Klebsiella RO 30 = assay: MIC, in vitro dilution method, Klebsiella RO 30 (Table III); details: RO30; Klebsiella RO 30; dilution method; read-out: MIC
# From the text: as §1, §2
SMILES,MIC (Enterobacter RO 154),MIC (Escherichia coli SOL 90),MIC (Citrobacter RL 49),MIC [1],MIC (Serratia RL 72),MIC (Pseudomonas RL 112),MIC (Klebsiella RO 30)
CC(C)(O/N=C(\C(=O)NC1C(=O)N2C(C(=O)O)=C(COC(=O)[C@@H](N)Cc3c[nH]cn3)C[S+]([O-])C12)c1csc(N)n1)C(=O)O (some centres unmarked) [41 889],8 µg/mL,1 µg/mL,1 µg/mL,0.5 µg/mL,4 µg/mL,8 µg/mL,1 µg/mL
NCc1cccc(C(=O)SCC2=C(C(=O)O)N3C(=O)C(NC(=O)C(=NOC4(C(=O)O)CCC4)c4csc(N)n4)C3[S+]([O-])C2)c1 (centres unmarked) [compound 42532],0.5 µg/mL,0.5 µg/mL,0.25 µg/mL,≤ 0.125 µg/mL,1 µg/mL,8 µg/mL,0.25 µg/mL
CC(O/N=C(\C(=O)NC1C(=O)N2C(C(=O)O)=C(COC(=O)[C@H]3CC[C@H](CN)CC3)C[S+]([O-])C12)c1csc(N)n1)C(=O)O (some centres unmarked) [42 217],≤ 0.12 µg/mL,≤ 0.12 µg/mL,≤ 0.12 µg/mL,≤ 0.12 µg/mL,0.25 µg/mL,16 µg/mL,≤ 0.12 µg/mL
CCNCc1ccc(C(=O)OCC2=C(C(=O)O)N3C(=O)C(NC(=O)/C(=N\OC(C)(C)C(=O)O)c4csc(N)n4)C3[S+]([O-])C2)cc1 (centres unmarked) [42 396],≤ 0.125 µg/mL,≤ 0.125 µg/mL,≤ 0.125 µg/mL,≤ 0.125 µg/mL,1 µg/mL,8 µg/mL,≤ 0.125 µg/mL
CC(C)C[C@H](N)C(=O)OCC1=C(C(=O)O)N2C(=O)C(NC(=O)/C(=N\OC(C)(C)C(=O)O)c3csc(N)n3)C2[S+]([O-])C1 (some centres unmarked) [41 859],8 µg/mL,1 µg/mL,2 µg/mL,0.25 µg/mL,4 µg/mL,16 µg/mL,0.5 µg/mL
CC(C)(O/N=C(\C(=O)NC1C(=O)N2C(C(=O)O)=C(COC(=O)[C@@H](N)CCCCN)C[S+]([O-])C12)c1csc(N)n1)C(=O)O (some centres unmarked) [41 888],8 µg/mL,2 µg/mL,2 µg/mL,1 µg/mL,8 µg/mL,8 µg/mL,1 µg/mL
CC(C)(O/N=C(\C(=O)NC1C(=O)N2C(C(=O)O)=C(COC(=O)CCCCCCCN)C[S+]([O-])C12)c1csc(N)n1)C(=O)O (centres unmarked) [41 856],4 µg/mL,0.5 µg/mL,2 µg/mL,≤ 0.12 µg/mL,2 µg/mL,16 µg/mL,0.25 µg/mL
CSCC[C@H](N)C(=O)OCC1=C(C(=O)O)N2C(=O)C(NC(=O)/C(=N\OC(C)(C)C(=O)O)c3csc(N)n3)C2[S+]([O-])C1 (some centres unmarked) [41 887],8 µg/mL,2 µg/mL,4 µg/mL,0.25 µg/mL,4 µg/mL,8 µg/mL,0.5 µg/mL
CCC(C)C(N)C(=O)OCC1=C(C(=O)O)N2C(=O)C(NC(=O)C(=NOC(C)(C)C(=O)O)c3csc(N)n3)C2[S+]([O-])C1 (centres unmarked) [41 860],8 µg/mL,2 µg/mL,1 µg/mL,0.5 µg/mL,4 µg/mL,16 µg/mL,0.5 µg/mL
CC(O/N=C(\C(=O)NC1C(=O)N2C(C(=O)O)=C(COC(=O)C3CCNCC3)C[S+]([O-])C12)c1csc(N)n1)C(=O)O (centres unmarked) [42 215],≤ 0.12 µg/mL,≤ 0.12 µg/mL,≤ 0.12 µg/mL,≤ 0.12 µg/mL,0.25 µg/mL,8 µg/mL,≤ 0.12 µg/mL
CNCc1ccc(C(=O)OCC2=C(C(=O)O)N3C(=O)C(NC(=O)/C(=N\OC4(C(=O)O)CCC4)c4csc(N)n4)C3[S+]([O-])C2)cc1 (centres unmarked) [42 464],≤ 0.125 µg/mL,≤ 0.125 µg/mL,≤ 0.125 µg/mL,≤ 0.125 µg/mL,0.5 µg/mL,4 µg/mL,≤ 0.125 µg/mL
CC(C)(O/N=C(\C(=O)NC1C(=O)N2C(C(=O)O)=C(COC(=O)C3(N)CCCCC3)C[S+]([O-])C12)c1csc(N)n1)C(=O)O (centres unmarked) [41 976],8 µg/mL,1 µg/mL,0.5 µg/mL,0.25 µg/mL,8 µg/mL,8 µg/mL,0.5 µg/mL
Nc1nc(/C(=N/OC2(C(=O)O)CCC2)C(=O)NC2C(=O)N3C(C(=O)O)=C(COC(=O)CC4CCCCN4)C[S+]([O-])C23)cs1 (centres unmarked) [42 471],0.25 µg/mL,0.5 µg/mL,0.25 µg/mL,≤ 0.125 µg/mL,0.5 µg/mL,8 µg/mL,0.25 µg/mL
CNCc1cccc(C(=O)OCC2=C(C(=O)O)N3C(=O)C(NC(=O)/C(=N\OC(C)(C)C(=O)O)c4csc(N)n4)C3[S+]([O-])C2)c1 (centres unmarked) [42 537],0.25 µg/mL,0.25 µg/mL,0.25 µg/mL,≤ 0.125 µg/mL,0.5 µg/mL,8 µg/mL,0.25 µg/mL
